Results: publication PMC2951365, “Structural Transformation of the Tandem Ubiquitin-Interacting Motifs in Ataxin-3 and Their Cooperative Interactions with Ubiquitin Chains” (PLoS ONE, 2010)
Read-outs that look alike come from different tables or passages of the source.

Key:
Ub [1] = target: T1, Ub (Homo sapiens, UniProt P0CG48); conditions: cited from earlier work
T1 construct: gene UBC; 15N-labeled Ub; cDNA encoding Ub cloned into pET-3a, expressed in E. coli
From the text: (§1) There are about 20∼50 residues inserted in between two UIMs of S5a and Vps27, but the linker region between the two UIMs of AT3 is very short. These adjoining UIM motifs in AT3 raise a possible cooperativity for binding with Ub. Our structure determination and titration experiments reveal that the individual UIMs of AT3 can bind Ub respectively but with lower affinities. […] It seems that the cooperative interaction of AT3-UIM12 with diUb or polyUb is more remarkable than that with monoUb (Supplemental Fig. S7). […] Therefore, the altered affinities of AT3-UIM12 for monoUb or diUb may result from structural transformation of the linker region. The backbone dynamics provides further evidence for the conformational change in the linker region, which possibly allows cooperative interaction with Ub.

Ub [2] = conditions: cited from earlier work
From the text: as §1

Ub [3] = target: T1, Ub; conditions: read-out: K D,app
Method: ^15N-Ub at a molar concentration of ∼0.2 mM was titrated with increasing amount of UIM peptides or its mutants. A series of ^1H-^15N HSQC spectra of Ub were obtained and the chemical shift changes were measured for each molar ratio. […] The combined average chemical shift changes (Δδave) were calculated as Δδave = [(0.2*ΔδN)^ 2 + (ΔδHN)^ 2]^1/2, where ΔδHN and ΔδN are the chemical shift changes in the ^1H and ^15N dimensions, respectively. […] The dissociation constant (K D) for the UIM-Ub binding was obtained by fitting the titration curves [61].
^15N- or ^15N/^13C-labeled samples (∼1 mM) were dissolved in a PBS buffer (20 mM phosphate, 100 mM NaCl, pH 6.5) containing 8% or 100% D2O and 0.02% (w/v) NaN3. […] All the NMR experiments were performed at 25°C on a Varian UNITY INOVA 600 MHz spectrometer equipped with three RF channels and a triple-resonance pulsed-field gradient probe.

Substance	Kd (Ub [1])	Kd (Ub [2])	also measured
S5a UIM1 (210–230 in alignment); construct not told	~350 µM		
S5a UIM2 (281–301 in alignment); construct not told	73 µM		
Vps27p UIM1 (257–277 in alignment); construct not told		277 µM	
Vps27p UIM2 (300–320 in alignment); construct not told		117 µM	
ataxin-3 residues 335–354; GB1 fusion [AT3-UIM3]			Kd (Ub [3]): > 3000 µM
